Data published in US12070471B2, “Remote loading of sparingly water-soluble drugs into lipid vesicles” (CELATOR PHARMACEUTICALS, INC., priority 2014, dated 2024).
Values belong to the compound of their own block, whether it stands above or below them.

Key:
[1] = Remote loading of taxane derivative precipitates into liposomes; format: physicochemical
Procedure: Liposomes were prepared using the extrusion and purification method described in Example 1. The lipid composition was POPC/cholesterol (3/0.5, mol/mol). The trapping agent consisted of zinc acetate or magnesium acetate at 120 mM. A solution of either unmodify carbazitaxel or 2′succinylcarbazitaxel in DMSO at 20 mg/mL was added to the liposome solution slowly over 30 seconds while vortexing to produce a drug precipitate in the liposome solution. The target drug to phospholipid ratio was 100 g/mole lipid for unmodified carbazitaxel and 100, 150 or 200 g for succinylcarbazitaxel/mol phospholipid. The solutions are heated for 30 min at 45° C. and then cooled on ice. A sample was removed to determine the input drug to lipid ratio and the remaining solution was spun in a centrifuge at 12,000 RPM for 5 minutes to pellet any unloaded drug. The supernatant was further purified from unloaded drug using a Sephadex G25 size exclusion column eluted with 5 mM HEPES, 145 mM NaCl at pH 6.5. The purified liposomes were analyzed for drug and lipid content by HPLC as described in Example 16.
To encapsulate the 2′ morpholine-4-ylethyl amide of succinylcabazitaxel, liposomes were prepared with a lipid composition of HSPC/DSPG/Chol/PEG-DSPE in the ratio 2/0.6/2/0.3 containing 1.0 M (SO4) TEA dextran sulfate. The liposomes were separated form the non-entrapped TEA dextran sulfate by anion exchange and then by dialysis against 5 mM Hepes buffered 10% (wt/wt) sucrose, pH 6.5. 2′ morpholine-4-ylethyl amide of succinylcabazitaxel was dissolved in DMSO at 10 mg/mL.
In a typical preparation, the DMSO 2′ morpholine-4-ylethyl amide of succinylcabazitaxel solution was added dropwise to the liposomes at room temperature while the liposomes suspension was rapidly mixed on a vortex mixer. […] The purified liposomes were analyzed for drug and lipid content by HPLC as described in Example 16. […]

[2] = Remote loading of amphotericin B precipitate into TEA dextran sulfate liposomes; format: physicochemical
Procedure: Liposomes were prepared with a lipid composition of HSPC/DSPG/Chol/PEG-DSPE in the ratio 2/0.6/2/0.3 containing 1.0 M (SO4) TEA dextran sulfate. The liposomes were separated form the non-entrapped TEA dextran sulfate by anion exchange and then by dialysis against 5 mM Hepes buffered 10% (wt/wt) sucrose pH 6.5. The liposomes were exchanged into 0.01 N HCL, 10% sucrose pH 2.0 before drug loading. Amphotericin B was dissolved in DMSO at 10 mg/ml.
In a typical preparation, the DMSO amphotericin B solution was added dropwise to the liposomes at room temperature while the liposomes suspension was rapidly mixed on a vortex mixer. The concentration of the liposomal lipid was 5 umol (phospholipid)/mL and 0.1 mL of the amphotericin B solution was added per mL of liposomes so that the final amphotericin B concentration was about 1.0 mg/ml AmB and the final DMSO concentration was about 10% (V/V). By adjusting the amount of liposomes in the preparation various AmB/PL ratios were tested, e.g., 200, 400, 800 g/mol.
The samples were heated at 65° C. for 15 min. Then cooled on ice for 30 minutes. The preparation was then passed through a PD10 (Sephadex G25) gel filtration column to remove any precipitated amphotericin B that was not incorporated into the liposome. […] The diameter of the drug loaded liposomes was not changed at the 200 and 400 g drug/mole lipid input ratio and were slighted larger circa 10% in the 800 g drug lipid ratio. The purified liposomes were analyzed for drug and lipid content by the HPLC method as described in Example 1.

[3] = elimination in the blood stream, unencapsulated drug; cited from earlier work
[4] = Drug precipitate loading followed by light scattering at 600 nm; format: physicochemical
Procedure: Liposomes containing 250 mM ammonium sulfate as trapping agent and 250 mM sodium sulfate as control liposomes which would not remote load drug. The liposomes were prepared and loaded using the procedure described in Example 1 except a disposable polystyrene cuvette was used as the reaction vessel. The scattering of light at 600 nm was measured with a UV/vis spectrophotometer during the loading process.

[5] = Carfilzomib liposome entrapment by remote loading from precipitate (drug and lipid by HPLC after purification); format: physicochemical
Procedure: Ammonium sulfate solution was prepared by dissolving ammonium sulfate solid to a final concentration of 250 mM (500 mequivilents of anion/L) no pH adjustment was made to yield a final pH of 5.6. Sodium sulfate solution (250 mM) was prepared by adding 0.35 g sodium sulfate to 10 mL deionized water.
The liposomes were formed by extrusion. Lipids were dissolved in ethanol at a concentration of 500 mM HSPC (591 mg/mL total lipid) at 65° C. and the 9 volumes of the trapping agent solution heated to 65° C. was added to the ethanol/lipid solution also at 65° C. The mixture was vortexed and transferred to a 10 mL thermostatically controlled (65° C.) Lipex Extruder. The liposomes were formed by extruding 10 times through polycarbonate membranes having 0.1 um pores. After extrusion the liposomes were cooled on ice. The transmembrane electrochemical gradient was formed by purification of the liposomes by dialysis in dialysis tubing having a molecular weight cut off of 12,000-14,000. […] The conductivity of the liposome solution was measured and was indistinguishable from the dialysis medium ˜40 μS/cm.
The lipid concentration is determined by measuring the cholesterol by HPLC using an Agilent 1100 HPLC with and Agilent Zorbax 5 um, […], Eclipse XDB-C8 column and a mobile phase of A=0.1% TFA, B=0.1% TFA/MeOH with an isocratic elution of 99% B. The flow rate is 1.0 mL/min, column temperature is 50° C., 10 μL injection and detection by absorbance at 205 nm. […] The liposome size is measured by dynamic light scattering.
Carfilzomib (Selleck Chemicals) was dissolved in DMSO at a concentration of 10 mg/mL. […] The supernatants were purified on a Sephadex G25 column collected and analyzed by HPLC. […] The mobile phase consists of A=0.1% TFA, B=0.1% TFA/MeOH with a gradient elution starting at 50% B and increasing to 83% B in 13 min with 7 min equilibration back to 50% B. The flow rate is 1.0 mL/min, column temperature is 30 C, 10 μl injection and detection by absorbance at 205 nm. […] The lipid concentration is determined by analysis of the cholesterol by HPLC. […]

[6] = Reverse gradient-directed drug release from liposomes; format: physicochemical
Procedure: Liposomes were loaded with carfilzomib as described in Example 1 and were purified into deionized water. The sample was divided into two aliquots. To the first aliquot, concentrated Hepes pH 7.4 and NaCl was added so that the final concentration was 5 mM Hepes, 145 mM NaCl (HBS). To the second aliquot, concentrated ammonium sulfate was added so that the final concentration was 250 mM. No obvious physical changes were initially observed. The samples were then heated at 65° C. for 30 min. The samples were transferred to clean eppendorf tubes and centrifuged for 10,000 rpm for 5 min after which the supernatants and precipitates were separated and tested for carfilzomib content by HPLC assay. Released drug precipitated, liposome encapsulated drug remained in the supernatant. The % carfilzomib released was calculated by […]

[7] = Carfilzomib solubility as a function of DMSO content (optical density at 600 nm); format: physicochemical; settings: 0.2 mg/mL
Procedure: Carfilzomib was added from a stock 10 mg/mL solution in DMSO to 1 mL of a citric acid/DMSO mixture so that the composition of DMSO was 2%, 25%, 50%, 75% and 100%. The final drug concentration was 0.2 mg/mL. The solutions were prepared and measured for optical density at 600 nm. The optical density at 600 nm is a good measure of how turbid or how much scattering material (such as drug precipitates) are in a solution, generally, the more precipitates the higher the absorbance. From FIG. 8 is apparent that at DMSO concentrations below 50% vol/vol (25° C.) and 25% vol/vol (65° C.) the drug remains in a precipitated form. Only when the concentration of DMSO is increased does it become effectively solubilized at this concentration of 0.2 mg/mL.

SMILES: CO[C@H]1C(=O)[C@]2(C)[C@@H](OC)C[C@H]3OC[C@@]3(OC(C)=O)[C@H]2[C@H](OC(=O)c2ccccc2)[C@]2(O)C[C@H](OC(=O)[C@H](OC(=O)CCC(=O)O)[C@@H](NC(=O)OC(C)(C)C)c3ccccc3)C(C)=C1C2(C)C [2′ succinylcabazitaxel, 2′-succinylcarbazitaxel]
loading efficacy ([1]; POPC/cholesterol liposomes with zinc acetate or magnesium acetate 120 mM, 45 C 30 min): greater than 85%

amphotericin B concentration to which final liposome preparation was readily concentrated ([2]; 5 mM Hepes, 144 mM NaCl, pH 7.4 buffer): 10 mg/mL
diameter of the drug loaded liposomes ([2]; 200 and 400 g drug/mole lipid input ratio): not changed
increase of diameter of the drug loaded liposomes ([2]; 800 g drug lipid ratio): circa 10%
remote loading efficiency ([2]; input 200 g drug/mole lipid): 96%
drug content of purified preparation ([2]; input 400 g drug/mole of lipid): 360 g amphotericin B/mole lipid
encapsulated ([2]; input 400 g drug/mole of lipid): about 90%
drug content of purified preparation ([2]; input 800 g drug/mole lipid): 560 g amphotericin B/mole lipid
encapsulated ([2]; input 800 g drug/mole lipid): about 70%
SMILES: C[C@@H]1[C@H](O)[C@@H](C)/C=C/C=C/C=C/C=C/C=C/C=C/C=C/[C@H](O[C@@H]2O[C@H](C)[C@@H](O)[C@H](N)[C@@H]2O)C[C@@H]2O[C@](O)(C[C@@H](O)C[C@@H](O)[C@H](O)CC[C@@H](O)C[C@@H](O)CC(=O)O[C@H]1C)C[C@H](O)[C@H]2C(=O)O [Amphotericin B]

efficiency of loading ([1]; 100 g carbazitaxel/mol phospholipid, calcium acetate and magnesium acetate liposomes (so in the source)): very low
encapsulation, % of the added drug ([1]; TEA-dextran sulfate liposomes): < 5%
SMILES: CO[C@H]1C(=O)[C@]2(C)[C@@H](OC)C[C@H]3OC[C@@]3(OC(C)=O)[C@H]2[C@H](OC(=O)c2ccccc2)[C@]2(O)C[C@H](OC(=O)[C@H](O)[C@@H](NC(=O)OC(C)(C)C)c3ccccc3)C(C)=C1C2(C)C [cabazitaxel]

time to clarification of the solution during loading ([4]; ammonium sulfate liposomes): ≤ 15 min
clarification of the precipitate during loading ([4]; sodium sulfate liposomes): do not show any clarification
loading capacity of remote loaded liposomes relative to sodium sulfate liposomes ([5]; ammonium sulfate vs sodium sulfate liposomes): > 3 fold
impact of delay between precipitate formation and loading on loading efficiency ([5]; delay up to 12 h): does not have a significant impact
greatest payload ([5]; triethylammonium sulfate gradient (500 mM), input 650 g drug/mol HSPC, 30 min, 10% DMSO): 440±12.6 g drug/mol HSPC
drug released with reverse gradient relative to control with no reverse gradient [6]: 6.5 fold
degradation of released drug (HPLC chromatogram vs starting material) ([6]; after loading and reverse gradient release): no degradation
DMSO concentration at which the drug remains in a precipitated form ([7]; 25 C): below 50 % vol/vol
DMSO concentration at which the drug remains in a precipitated form ([7]; 65 C): < 25 % vol/vol
SMILES: CC(C)C[C@H](NC(=O)[C@H](CCc1ccccc1)NC(=O)CN1CCOCC1)C(=O)N[C@@H](Cc1ccccc1)C(=O)N[C@@H](CC(C)C)C(=O)[C@@]1(C)CO1 [carfilzomib]
t1/2 [3]: < 20 min
